Data reported in patent publication US20100197914A1, “Purine Derivatives as Adenosine Al Receptor Ligands” (priority 2007, published 2010).

What follows are compounds tested against T1, adenosine A1 receptor (Homo sapiens, UniProt P30542) (assay: In vitro functional activity based on the stimulation of [35S]-GTPγS binding (SPA, agonist format)). Conditions: mean of >2 measurements; A1 membranes, [35S]-GTPγS SPA assay; read-out: Mean pEC50 (converted).
T1 sequence (P30542 1-326): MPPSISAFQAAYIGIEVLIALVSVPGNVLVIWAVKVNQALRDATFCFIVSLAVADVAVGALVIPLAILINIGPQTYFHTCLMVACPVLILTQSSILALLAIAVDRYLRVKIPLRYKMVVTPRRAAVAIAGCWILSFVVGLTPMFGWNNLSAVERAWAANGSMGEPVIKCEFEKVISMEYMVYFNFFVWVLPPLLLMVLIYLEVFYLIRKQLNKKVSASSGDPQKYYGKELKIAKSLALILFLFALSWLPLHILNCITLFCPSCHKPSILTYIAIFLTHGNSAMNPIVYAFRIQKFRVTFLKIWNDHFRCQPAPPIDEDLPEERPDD
Type: biochemical
Source text: In Vitro Functional Activity at the Human a Receptor Based on the Stimulation of [^35S]-GTPγS Binding
In brief the assay is based on the conventional GTPγS binding assay described by ([Lorenzen A, Guerra L, Vogt H, et al, (1996)] Interaction of full and partial agonists of the A1 adenosine receptor with receptor/G protein complexes in rat brain membranes. Mol Pharmacol. 49(5):915-26) The assay is run as a SPA assay where the A1 membranes are captured by wheatgerm agglutinin (WGA) SPA beads, through a specific interaction between WGA and carbohydrate residues of glycoprotein's on the surfaces for the membranes. Upon receptor stimulation, [^35S]-GTPγS binds specifically to the alpha subunit of the G-protein thus bringing the [^35S]-GTPγS into close proximity with the SPA beads. Emitted β particles from the [^35S]-GTPγS excite the scintillant in the beads and produce light. […] The assays were performed in a final volume of 250 μL per well in a white non-binding surface 96-well Optiplates and could be run in either an agonist format, or an antagonist format (pre-incubation with an EC50 concentration of the appropriate receptor agonist).

Structure (SMILES) | EC50 [nM]
CCC(=O)N[C@H]1C[C@@H](n2cnc3c(NC4CCCC4)nc(Cl)nc32)[C@H](O)[C@@H]1O [Example 2, N-[(1S,2R,3S,4R)-4-(2-Chloro-6-cyclopentylamino-purin-9-yl)-2,3-dihydroxy-cyclopentyl]-propionamide] | 67.7
O=C(CO)N[C@H]1C[C@@H](n2cnc3c(NC4CCCC4)ncnc32)[C@H](O)[C@@H]1O [Example 3, N-[(1S,2R,3S,4R)-4-(6-Cyclopentylamino-purin-9-yl)-2,3-dihydroxy-cyclopentyl]-2-hydroxy-acetamide] | 97.9
O=C(CO)N[C@H]1C[C@@H](n2cnc3c(NC4CCCC4)nc(Cl)nc32)[C@H](O)[C@@H]1O [Example 4, N-[(1S,2R,3S,4R)-4-(2-Chloro-6-cyclopentylamino-purin-9-yl)-2,3-dihydroxy-cyclopentyl]-2-hydroxy-acetamide] | 40.1
CCC(=O)N[C@H]1C[C@@H](n2cnc3c(NC4CCCC4)ncnc32)[C@H](O)[C@@H]1O [Example 1, N-[(1S,2R,3S,4R)-4-(6-Cyclopentylamino-purin-9-yl)-2,3-dihydroxy-cyclopentyl]-propionamide] | 47.9
